Assay results as given in patent US20250230193A1, “CYCLIC COMPOUND HAVING SELECTIVE KRAS INHIBITORY EFFECT ON HRAS AND NRAS” (CHUGAI SEIYAKU KABUSHIKI KAISHA, priority 2022, published 2025).
Where a SMILES comes first, the peptide text is derived from it. Bridges are numbered along the chain shown (N, C = ends). [ ]: non-standard residue; d: D form. The star is where a group is joined. hPhe(3-Cl-4-CF3) = N[C@@H](CCc1ccc(C(F)(F)F)c(Cl)c1)C(=O)O; NPrPhe(4-CF3) = CCCN[C@@H](Cc1ccc(C(F)(F)F)cc1)C(=O)O; NMeGly(cPent) = CN[C@H](C(=O)O)C1CCCC1; Hyp = O=C(O)[C@@H]1C[C@@H](O)CN1; NMeD = CN[C@@H](CC(=O)O)C(=O)O; NMeL = CN[C@@H](CC(C)C)C(=O)O; Morpholide = C1CN(*)CCO1; NMeA = CN[C@@H](C)C(=O)O; Ac5c = NC1(C(=O)O)CCCC1; Aze = O=C(O)[C@@H]1CCN1; Sar = CNCC(=O)O

Legend:
[1] = molecular target: GDP-bound NRAS wild-type protein (Homo sapiens, UniProt P01111); experiment: Binding to NRAS by surface plasmon resonance (SPR), Single Cycle Kinetics; details: for NRAS/KRAS (ratio of KD for GDP-bound NRAS wild-type to KD for KRAS) / NRAS/KRAS (ratio of KD value with respect to NRAS to KD value with respect to KRAS): SPR; for NRAS/KRAS (ratio of KD value with respect to NRAS to KD value with respect to KRAS): GDP-bound NRAS wild-type vs GDP-bound KRAS wild-type
[2] = molecular target: GDP-bound HRAS wild-type protein (Homo sapiens, UniProt P01112); experiment: Binding to HRAS by surface plasmon resonance (SPR), Single Cycle Kinetics; details: for HRAS/KRAS (ratio of KD for GDP-bound HRAS wild-type to KD for KRAS) / HRAS/KRAS (ratio of KD value with respect to HRAS to KD value with respect to KRAS): SPR; for HRAS/KRAS (ratio of KD value with respect to HRAS to KD value with respect to KRAS): GDP-bound HRAS wild-type vs GDP-bound KRAS wild-type
Chain of GDP-bound HRAS wild-type protein (P01112 whole entry): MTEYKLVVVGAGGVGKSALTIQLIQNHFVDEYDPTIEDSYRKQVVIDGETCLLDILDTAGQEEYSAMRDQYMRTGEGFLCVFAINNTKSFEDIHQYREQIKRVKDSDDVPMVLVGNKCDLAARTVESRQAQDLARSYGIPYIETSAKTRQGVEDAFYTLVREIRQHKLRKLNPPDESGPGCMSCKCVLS

Chain of GDP-bound NRAS wild-type protein (P01111 whole entry): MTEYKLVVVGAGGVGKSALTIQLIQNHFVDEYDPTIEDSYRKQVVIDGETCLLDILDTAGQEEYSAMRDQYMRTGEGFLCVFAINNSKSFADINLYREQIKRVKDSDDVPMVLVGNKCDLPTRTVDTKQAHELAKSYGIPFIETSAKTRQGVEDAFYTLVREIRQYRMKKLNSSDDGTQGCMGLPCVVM

## CCC(CC)[C@H]1C(=O)N(C)[C@H](C(=O)N(C)C)CC(=O)N(C)[C@@H](COC)C(=O)N[C@@H]([C@@H](C)CC)C(=O)N2CCC[C@H]2C(=O)N(C)[C@H]2C/C=C\CCN(C2=O)[C@@H](Cc2ccc(C(F)(F)F)cc2)C(=O)N(C)CC(=O)N[C@@H](CCc2ccc(Cl)c(Cl)c2)C(=O)N2C[C@H](OC3CCC3)C[C@H]2C(=O)NC2(CC(C)(C)C2)C(=O)N1C [PP2645]
[1]; KD ratio NRAS/KRAS, class symbols
  NRAS/KRAS (ratio of KD value with respect to GDP-bound NRAS wild-type protein to KD value with respect to KRAS): AA (a compound having 20 or more is denoted as AA)
[2]; KD ratio HRAS/KRAS, class symbols
  HRAS/KRAS (ratio of KD value with respect to GDP-bound HRAS wild-type protein to KD value with respect to KRAS): A (a compound having 10 or more and less than 20 is denoted as A)

## CCCN1C(=O)[C@@H]2CCN2C(=O)[C@H](C)N(C)C(=O)[C@H]([C@@H](C)CC)NC(=O)[C@H](CC(C)C)N(C)C(=O)C[C@@H](C(=O)N2CCOCC2)NC(=O)[C@H](C2CCCC2)N(C)C(=O)C2(CCCC2)NC(=O)[C@@H]2C[C@@H](OCC)CN2C(=O)[C@H](CCc2ccc(C(F)(F)F)c(Cl)c2)NC(=O)CN(C)C(=O)[C@@H]1Cc1ccc(C(F)(F)F)cc1 [PP0347] ([NMeL]I[NMeA][Aze][NPrPhe(4-CF3)][Sar][hPhe(3-Cl-4-CF3)][Hyp](Et)[Ac5c][NMeGly(cPent)]D-Morpholide; lactam N-11)
[1]; KD ratio NRAS/KRAS
  NRAS/KRAS (ratio of KD for GDP-bound NRAS wild-type to KD for KRAS): C (A compound having a KD ratio of 0.1 or more and less than 3 is denoted as C)
[2]; KD ratio HRAS/KRAS
  HRAS/KRAS (ratio of KD for GDP-bound HRAS wild-type to KD for KRAS): B (a compound having 3 or more and less than 10 is denoted as B)

## CCCN1C(=O)[C@@H]2CCN2C(=O)[C@H](C)N(C)C(=O)[C@H]([C@@H](C)CC)NC(=O)[C@H](CC(C)C)N(C)C(=O)C[C@@H](C(=O)N2CCOCC2)N(C)C(=O)[C@H](C2CCCC2)N(C)C(=O)C2(CCCC2)NC(=O)[C@@H]2CCN2C(=O)[C@H](CCc2ccc(C(F)(F)F)c(Cl)c2)NC(=O)CN(C)C(=O)[C@@H]1Cc1ccc(C(F)(F)F)cc1 [PP0281] ([NMeL]I[NMeA][Aze][NPrPhe(4-CF3)][Sar][hPhe(3-Cl-4-CF3)][Aze][Ac5c][NMeGly(cPent)][NMeD]-Morpholide; lactam N-11)
[1]; KD ratio NRAS/KRAS
  NRAS/KRAS (ratio of KD for GDP-bound NRAS wild-type to KD for KRAS): C (A compound having a KD ratio of 0.1 or more and less than 3 is denoted as C)
[2]; KD ratio HRAS/KRAS
  HRAS/KRAS (ratio of KD for GDP-bound HRAS wild-type to KD for KRAS): C (A compound having a KD ratio of 0.1 or more and less than 3 is denoted as C)

## CCO[C@@H]1C[C@H]2C(=O)NC3(CCC3)C(=O)N(C)[C@@H](C3CCCC3)C(=O)N(C)[C@H](C(=O)N(C)C)CC(=O)N(C)[C@H]3CCCCCc4ccc(cc4)C[C@@H](C(=O)N(C)CC(=O)N[C@@H](CCc4ccc(C(F)(F)F)c(OC)c4)C(=O)N2C1)N1CC/C=C\C[C@@H](C1=O)N(C)C(=O)CN(C)C(=O)[C@H]([C@@H](C)CC)NC3=O [PP2262]
[1]
  NRAS/KRAS (ratio of KD value with respect to NRAS to KD value with respect to KRAS): A (a compound having 10 or more and less than 20 is denoted as A)
[2]
  HRAS/KRAS (ratio of KD value with respect to HRAS to KD value with respect to KRAS): B (a compound having 3 or more and less than 10 is denoted as B)

## CC[C@H](C)[C@@H]1NC(=O)[C@H](CC(C)C)N(C)C(=O)C[C@@H](C(=O)N(C)CC)N(C)C(=O)[C@H](C2CCCC2)N(C)C(=O)C2(CC(C)(C)C2)NC(=O)[C@@H]2C[C@H](C)CN2C(=O)[C@H](CCc2ccc(C(F)(F)F)c(OC)c2)NC(=O)CN(C)C(=O)[C@H](Cc2ccc(C)cc2)N2CC/C=C\C[C@@H](C2=O)N(C)C(=O)[C@@H]2CCCN2C1=O [PP2410]
[1]
  NRAS/KRAS (ratio of KD value with respect to NRAS to KD value with respect to KRAS): A (a compound having 10 or more and less than 20 is denoted as A)
[2]
  HRAS/KRAS (ratio of KD value with respect to HRAS to KD value with respect to KRAS): A (a compound having 10 or more and less than 20 is denoted as A)

## CC[C@H](C)[C@@H]1NC(=O)[C@H](COC)N(C)C(=O)C[C@@H](C(=O)N2CCOCC2)N(C)C(=O)[C@H](C2CCCC2)N(C)C(=O)C2(CCC2)NC(=O)[C@@H]2CCCN2C(=O)[C@H](CCc2cc(F)c(C(F)(F)F)c(F)c2)NC(=O)CN(C)C(=O)[C@H](Cc2ccc(C(F)(F)F)cc2)N2CCCCC[C@@H](C2=O)N(C)C(=O)CNC1=O [PP0860]
[1]; KD ratio
  NRAS/KRAS (ratio of KD value with respect to NRAS to KD value with respect to KRAS): B (a compound having 3 or more and less than 10 is denoted as B)
[2]; KD ratio
  HRAS/KRAS (ratio of KD value with respect to HRAS to KD value with respect to KRAS): B (a compound having 3 or more and less than 10 is denoted as B)

## CCO[C@@H]1C[C@H]2C(=O)NC3(CC(C)(C)C3)C(=O)N(C)[C@@H](C(CC)CC)C(=O)N(C)[C@H](C(=O)N(C)C)CC(=O)N(C)[C@@H](CC)C(=O)N[C@@H]([C@@H](C)CC)C(=O)N(C)CC(=O)N(C)[C@H]3C/C=C\CCN(C3=O)[C@@H](Cc3ccc(C)cc3)C(=O)N(C)CC(=O)N[C@@H](CCc3cc(F)c(C(F)(F)F)c(F)c3)C(=O)N2C1 [PP2147]
[1]
  NRAS/KRAS (ratio of KD value with respect to NRAS to KD value with respect to KRAS): A (a compound having 10 or more and less than 20 is denoted as A)
[2]
  HRAS/KRAS (ratio of KD value with respect to HRAS to KD value with respect to KRAS): B (a compound having 3 or more and less than 10 is denoted as B)
